This assay concerns the target pa-FPR (Pseudomonas aeruginosa, UniProt Q9HYK7). The assay can be described thus: 1H-15N HSQC NMR titration, […] fit. Format: binding.

Each structure is given as a SMILES string.

Chain of pa-FPR (Q9HYK7 whole entry): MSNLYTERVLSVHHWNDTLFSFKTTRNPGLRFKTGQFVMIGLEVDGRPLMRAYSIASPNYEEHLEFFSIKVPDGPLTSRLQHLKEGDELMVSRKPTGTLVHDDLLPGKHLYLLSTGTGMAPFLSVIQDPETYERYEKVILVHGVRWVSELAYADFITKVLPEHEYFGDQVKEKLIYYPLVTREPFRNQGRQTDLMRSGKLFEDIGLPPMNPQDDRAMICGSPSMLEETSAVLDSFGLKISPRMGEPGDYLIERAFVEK

Regarding `NC(=O)c1ccc[n+]([C@@H]2O[C@H](COP(=O)(O)OP(=O)(O)OC[C@H]3O[C@@H](n4cnc5c(N)ncnc54)[C@H](OP(=O)(O)O)[C@@H]3O)[C@@H](O)[C@H]2O)c1` [NADP^+], the Kd (usually the equilibrium constant for the complex coming apart) was 24 µM. In other words, the double-digit micromolar range.

(Values after publication PMC2792877 (Biochemistry, 2008).)
